Data published in US20200078379A1, “DEFEROXAMINE DERIVATIVES AS MEDICAMENTS” (BIOTECHNOLOGICKY USTAV AV CR, V.V.I., priority 2017, published 2020).
pIC50: −log10 of the molar value. Like-named read-outs stand apart in the source and are kept apart here.

What was measured:
MCF7 cells [1] = assay: crystal violet assay, cellular viability; type: cell-based, human; conditions: for pIC50: MCF7, 48 h, read-out: IC50 cellular viability
Description: (§1) Compound 1 and compound 2 were tested in their efficacy to kill malignant MCF7 cancer cells. Briefly, 10.000 cells per well were seeded in a 96-well plat on one day and the next day selected compounds were added and incubated with the cells for 48 hrs. The cells were then fixed with 4% paraformaldehyde, stained with 0.05% crystal violet, washed with PBS, and solubilized in 1% SDS. The absorbance of the plate at 595 nm was then measured, quantifying the number of viable cells.
(§2) A number of compounds of the present invention were tested for cytotoxicity towards at least some of human breast cancer cell lines (MCF7, MDA-MB-231), human fibroblast (BJ) and murine triple negative breast cancer cell line 4T1 (Table 2).

MDA-MB-231 cells [2] = assay: crystal violet assay, cellular viability; type: cell-based, human; conditions: Homo sapiens, read-out: IC50 cellular viability
Description: as §1, §2

[3] = test system: murine triple negative breast cancer cell line 4T1; assay: crystal violet assay, cellular viability; type: cell-based; conditions: Mus musculus, 4T1, 48 hours
Description: as §1, §2

MDA-MB-231 cells [4] = assay: AnnexinV/PI cell death assay; type: cell-based, human; conditions: MDA-MB-231, 200 μM, 48 hrs
Description: (§3) To confirm such findings by an independent method, cell death-inducing potency (cytotoxic efficacy) of DFO and compound 2 have been tested via annexin V/PI staining commonly used as a measure of apoptotic/necrotic cell death. Briefly, cells were seeded in 12-well plate at 100,000 per well, incubated with the selected compounds for 48 hours, then floating cells were spun, adherent cells trypsinized and spun as well followed by the staining with AnnexinV-FITC and PI probes. Cells were then washed with PBS and measured via Fluorescence Activated Sorter.

BT474 cells = assay: AnnexinV/PI cell death assay; type: cell-based; conditions: BT474, 200 μM, 48 hrs
Description: as §3

BT549 cells = assay: AnnexinV/PI cell death assay; type: cell-based; conditions: BT549, 200 μM, 48 hrs
Description: as §3

non malignant cells (BJ) = assay: AnnexinV/PI cell death assay; type: cell-based
Description: as §3
We have then analyzed the percentage of death cells by the annexinV/PI staining as described in example 7. We have observed a significant potentiation in cell death induction when gallium was combined with compound 2 (Table 14)

T47D cells [5] = assay: crystal violet assay, cellular viability; type: cell-based; conditions: 48 hours
T47D cells [6] = assay: AnnexinV/PI cell death assay; type: cell-based; conditions: 200 μM, 48 hrs
Description: as §3
Since compound 2 is an iron chelator, we have evaluated the effect of pretreating compound 2 with iron. at a 1:1 ratio by using the Annexin V/PI staining as in example 7.

MCF7 cells [7] = assay: cellular proliferation in real time, Xcelligence technology; type: cell-based
Description: The ability of compound 2 to affect the proliferation and cell death induction in real time was monitored by the Xcelligence technology that detects changes in electrical impedance related to the cell number. In brief, special 16-well e-plates containing gold electrodes were filled with medium, blank values were recorded, and then 5.000 cells per well were seeded in the plate and let to attach for 2 hours, followed by the addition of compounds. The electrical impedance was then monitored over time in real-time every 15 minutes. In this case a line is drawn that reflects the cell number over time. […] We have seen a clear inhibition of proliferation with compound 2 at 1 μM, complete block of proliferation at 2 μM concentration, while the cytotoxic effect is seen at 5 μM (Table 9).

MCF7 cells [8] = assay: AnnexinV/PI cell death assay; type: cell-based, human
Description: Briefly, cells were seeded in 12-well plate at 100,000 per well, incubated with the selected compounds for 48 hours, then floating cells were spun, adherent cells trypsinized and spun as well followed by the staining with AnnexinV-FITC and PI probes. Cells were then washed with PBS and measured via Fluorescence Activated Sorter.

[9] = test system: non malignant cells (BJ), human fibroblast; assay: crystal violet assay, cellular viability; type: cell-based
Description: as §1, §2

[10] = MDA-MB-231, 48 hours, crystal violet

CC(=O)N(O)CCCCCNC(=O)CCC(=O)N(O)CCCCCNC(=O)CCC(=O)N(O)CCCCCN(CCCCCCCCCC[P+](C1CCCCC1)(C1CCCCC1)C1CCCCC1)CCCCCCCCCC[P+](C1CCCCC1)(C1CCCCC1)C1CCCCC1 [Compound 4, Tricyclohexyl(3,14,25-trihydroxy-2,10,13,21,24-pentaoxo-31-(10-(tricyclohexylphosphonio)decyl)-3,9,14,20,25,31-hexaazahentetracontan-31-ium-41-yl) phosphonium trichloride]
pIC50 (MCF7 cells [1]; Homo sapiens, crystal violet): 6.15 | pIC50 (MDA-MB-231 cells [2]; MDA-MB-231, 48 h): 5.89 | pIC50 [3]: 5.74

CCCC[P+](CCCC)(CCCC)CCCCCCCCCCN(CCCCCCCCCC[P+](CCCC)(CCCC)CCCC)CCCCCN(O)C(=O)CCC(=O)NCCCCCN(O)C(=O)CCC(=O)NCCCCCN(O)C(C)=O [Compound 6, 42,42-dibutyl-3,14,25-trihydroxy-2,10,13,21,24-pentaoxo-31-(10-(tributylphosphonio)decyl)-3,9,14,20,25,31-hexaaza-42-phosphahexatetracontane-31,42-diium trichloride]
pIC50 (MCF7 cells [1]; Homo sapiens, crystal violet): 5.52 | pIC50 (MDA-MB-231 cells [2]; [10]): 5.55 | pIC50 [3]: 5.31

CC(=O)N(O)CCCCCNC(=O)CCC(=O)N(O)CCCCCNC(=O)CCC(=O)N(O)CCCCCN(CCCCCCCCCCCC[P+](c1ccccc1)(c1ccccc1)c1ccccc1)CCCCCCCCCCCC[P+](c1ccccc1)(c1ccccc1)c1ccccc1 [Compound 8, Triphenyl(3,14,25-trihydroxy-2,10,13,21,24-pentaoxo-31-(12-(triphenylphosphonio)dodecyl)-3,9,14,20,25,31-hexaazatritetracontan-31-ium-43-yl)phosphonium trichloride]
pIC50 (MCF7 cells [1]; Homo sapiens, crystal violet): 6.30 | pIC50 (MDA-MB-231 cells [2]; MDA-MB-231, 48 h): 6.22 | pIC50 [3]: 5.92

CC(=O)N(O)CCCCCNC(=O)CCC(=O)N(O)CCCCCNC(=O)CCC(=O)N(O)CCCCCN(CCCCCCCCCC[P+](Cc1ccccc1)(Cc1ccccc1)Cc1ccccc1)CCCCCCCCCC[P+](Cc1ccccc1)(Cc1ccccc1)Cc1ccccc1 [Compound 9, 2,2-dibenzyl-19,30,41-trihydroxy-20,23,31,34,42-pentaoxo-1-phenyl-13410-(tribenzylphosphonio)decyl)-13,19,24,30,35,41-hexaaza-2-phosphatritetracontane-2,13-diium trichloride]
pIC50 (MCF7 cells [1]; Homo sapiens, crystal violet): 6.05 | pIC50 (MDA-MB-231 cells [2]; MDA-MB-231, 48 h): 6.10 | pIC50 [3]: 5.74

CCCCCCCC[P+](CCCCCCCC)(CCCCCCCC)CCCCCCCCCCN(CCCCCCCCCC[P+](CCCCCCCC)(CCCCCCCC)CCCCCCCC)CCCCCN(O)C(=O)CCC(=O)NCCCCCN(O)C(=O)CCC(=O)NCCCCCN(O)C(C)=O [Compound 10, 3,14,25-trihydroxy-42,42-dioctyl-2,10,13,21,24-pentaoxo-31-(10-(trioctylphosphonio)decyl)-3,9,14,20,25,31-hexaaza-42-phosphapentacontane-31,42-diium trichloride]
pIC50 (MCF7 cells [1]; Homo sapiens, crystal violet): 6.10 | pIC50 (MDA-MB-231 cells [2]; [10]): 6.15 | pIC50 [3]: 5.89

CC(=O)N(O)CCCCCNC(=O)CCC(=O)N(O)CCCCCNC(=O)CCC(=O)N(O)CCCCCN [DFO, deferoxamine]
mean percentage of dead cells (AnnexinV/PI) (MDA-MB-231 cells [4]): 22.4% | mean percentage of dead cells (AnnexinV/PI) (BT474 cells): 19.2% | mean percentage of dead cells (AnnexinV/PI) (BT549 cells): 18.3% | mean percentage of dead cells (AnnexinV/PI) (non malignant cells (BJ); 200 μM, 48 hrs): 10.5% | Selectivity index (IC50 non-malignant/IC50 malignant) (T47D cells [5]; BJ vs T47D): 0.80 | pIC50 (T47D cells [5]; Homo sapiens, T47D, crystal violet, read-out: IC50 cellular viability): 3.56 | mean percentage of dead cells (AnnexinV/PI) (T47D cells [6]): 14.1 (7.2) % | slope of the line (relative number of cells in relation to time) (MCF7 cells [7]; MCF7, 0-15 h, 1 μM): 1.02 | slope of the line (relative number of cells in relation to time) (MCF7 cells [7]; MCF7, 0-15 h, 2 μM): 1.12 | slope of the line (relative number of cells in relation to time) (MCF7 cells [7]; MCF7, 0-15 h, 5 μM): 1.01 | slope of the line (relative number of cells in relation to time) (MCF7 cells [7]; MCF7, 0-36 h, 1 μM): 1.31 | slope of the line (relative number of cells in relation to time) (MCF7 cells [7]; MCF7, 0-36 h, 2 μM): 1.53 | slope of the line (relative number of cells in relation to time) (MCF7 cells [7]; MCF7, 0-36 h, 5 μM): 0.50 | mean percentage of dead cells (AnnexinV/PI) (MCF7 cells [8]; MCF7, 200 μM, 48 hrs): 45.0% | Selectivity index (IC50 non-malignant/IC50 malignant) (MCF7 cells [1]; BJ vs MCF7, 48 hours): 1.72 | viability at 2 µM (MCF7 cells [1]; Homo sapiens, MCF7, 2 μM, 48 hrs, crystal violet, read-out: mean percentage of viable cells compared to non-treated controls): 92% | viability at 5 µM (MCF7 cells [1]; Homo sapiens, MCF7, 5 μM, 48 hrs, crystal violet, read-out: mean percentage of viable cells compared to non-treated controls): 95.9% | viability at 10 µM (MCF7 cells [1]; Homo sapiens, MCF7, 10 μM, 48 hrs, crystal violet, read-out: mean percentage of viable cells compared to non-treated controls): 92.2% | Selectivity index (IC50 non-malignant/IC50 malignant) ([9]; BJ vs BJ (reference)): 1 | pIC50 ([9]; Homo sapiens, Fibroblast, BJ non malignant, 48 hours, crystal violet): 3.66

[Cl][Ga]([Cl])[Cl] [GaCl3, gallium chloride, reference compound]
percentage of death cells by annexinV/PI staining (non malignant cells (BJ); ratio Ga:compound 2 1:0, 5 μM gallium salt alone): 2.4 (0.1) | percentage of death cells by annexinV/PI staining (MCF7 cells [8]; MCF7, ratio Ga:compound 2 1:0, 5 μM gallium salt alone): 5.9 (2.5)
